Laboratory results taken from ChEMBL document CHEMBL5532661, “Discovery of a Novel Glucagon-like Peptide-1 (GLP-1) Analogue from Bullfrog and Investigation of Its Potential for Designing GLP-1-Based Multiagonists” (J Med Chem, 2024).
Active and inactive are the calls of the source. No cut-off for these calls is given here. Numbered stars: 1 amine (or outer) side, 2 acyl side, 3 side chain; on linkers, the order of the positions; unused ones are H or OH. Square brackets hold non-standard residues; d marks the D form. Side chains are listed from the residue outwards. Peptide text beside a SMILES is read from it. * marks the point of attachment. C18 diacid = O=C(O)CCCCCCCCCCCCCCCCC(=O)*; γGlu = O=C(O)[C@H](CCC(=O)[*:2])N[*:1]; AEEA = NCCOCCOCC(=O)O; Aib = CC(C)(N)C(=O)O

Key:
Mus musculus [1] = test: Anorexigenic effect in ICR mouse assessed as decrease in food intake at 30 nmol/kg, sc measured upto 72 hrs by acute food intake study; type: functional, organism-based
Mus musculus [2] = test: Reduction in total cholesterol in DIO mouse at 30 nmol/kg, sc treated every 2 and half day once measured after 21 days; type: functional, organism-based; details: time 21.0 day
Mus musculus [3] = test: Reduction in serum AST in DIO mouse at 30 nmol/kg, sc treated every 2 and half day once measured after 21 days; type: functional, organism-based; details: time 21.0 day
Mus musculus [4] = test: Anorexigenic effect in ICR mouse assessed as decrease in food intake at 10 nmol/kg, sc measured upto 72 hrs by acute food intake study; type: functional, organism-based
Mus musculus [5] = test: Reduction in serum triglyceride in DIO mouse at 30 nmol/kg, sc treated every 2 and half day once measured after 21 days; type: functional, organism-based; details: time 21.0 day
Mus musculus [6] = test: Antihyperglycemic effect in DIO mouse assessed as antihyperglycemic duration by measuring blood glucose at 30 nmol/kg, sc administered twice daily measured by hypoglycemic duration assay; type: functional, organism-based
Mus musculus [7] = test: Reduction in blood glucose level in non-fasting DIO mouse at 30 nmol/kg, sc treated every 2 and half day once measured after 21 days by glucose tolerance test; type: functional, organism-based; details: time 21.0 day
Mus musculus [8] = test: Hypoglycemic effect in ICR mouse treated with 3 g/kg glucose assessed as reduction in blood glucose level at 30 nmol/kg, sc measured upto 120 mins pretreated with GLP-1R antagonist by OGTT; type: functional, organism-based
Mus musculus [9] = test: Anorexigenic effect in ICR mouse assessed as decrease in food intake at 30 nmol/kg, sc measured at 48 hrs by acute food intake study; type: functional, organism-based
Mus musculus [10] = test: Reduction in total fat mass in DIO mouse at 30 nmol/kg, sc treated every 2 and half day once measured after 21 days; type: functional, organism-based; details: time 21.0 day
[11] = target: T1, Glucagon-like peptide 1 receptor (Homo sapiens, UniProt P43220); test: Agonist activity at human GLP-1 receptor expressed in HEK293 cells assessed as cAMP level measured after 60 mins by HTRF based assay; type: functional, cell-based
Mus musculus [12] = test: Antihyperglycemic effect in non-fasted DIO mouse assessed as decrease in blood glucose at 30 nmol/kg, sc measured upto 48 hrs; type: functional, organism-based
Mus musculus [13] = test: Reduction in body weight in DIO mouse at 30 nmol/kg, sc treated every 2 and half day once measured after 21 days; type: functional; design: scale not given: the % may be the effect or the level left; details: time 21 day
Mus musculus [14] = test: Anorexigenic effect in sc dosed ICR mouse assessed as decrease in food intake measured upto 72 hrs by acute food intake study; type: functional, organism-based; details: dose 10-100 nmol/kg
Mus musculus [15] = test: Reduction in hepatic lipid content in DIO mouse at 30 nmol/kg, sc treated every 2 and half day once measured after 21 days by H and E staining based assay; type: functional, organism-based; details: time 21.0 day
Mus musculus [16] = test: Antihyperglycemic effect in DIO mouse assessed as antihyperglycemic duration by measuring blood glucose at 30 nmol/kg, sc measured after 48 hrs by hypoglycemic duration assay; type: functional, organism-based
Mus musculus [17] = test: Reduction in serum ALT in DIO mouse at 30 nmol/kg, sc treated every 2 and half day once measured after 21 days; type: functional, organism-based; details: time 21.0 day
[18] = target: T1, Glucagon-like peptide 1 receptor; test: Potency index, ratio of Semaglutide EC50 to test compound EC50 for agonist activity at human GLP-1 receptor expressed in HEK293 cells assessed as cAMP level measured after 60 mins by HTRF based assay; type: functional, cell-based; details: filed as agonist
Mus musculus [19] = test: Antihyperglycemic effect in DIO mouse assessed as prolonged antihyperglycemic duration by measuring blood glucose at 100 nmol/kg, sc; type: functional, organism-based
Mus musculus [20] = test: Hypoglycemic effect in ICR mouse treated with 3 g/kg glucose assessed as reduction in blood glucose level at 100 nmol/kg, sc measured upto 120 mins by acute glucose lowering test; type: functional, organism-based

T1 sequence (P43220 whole entry): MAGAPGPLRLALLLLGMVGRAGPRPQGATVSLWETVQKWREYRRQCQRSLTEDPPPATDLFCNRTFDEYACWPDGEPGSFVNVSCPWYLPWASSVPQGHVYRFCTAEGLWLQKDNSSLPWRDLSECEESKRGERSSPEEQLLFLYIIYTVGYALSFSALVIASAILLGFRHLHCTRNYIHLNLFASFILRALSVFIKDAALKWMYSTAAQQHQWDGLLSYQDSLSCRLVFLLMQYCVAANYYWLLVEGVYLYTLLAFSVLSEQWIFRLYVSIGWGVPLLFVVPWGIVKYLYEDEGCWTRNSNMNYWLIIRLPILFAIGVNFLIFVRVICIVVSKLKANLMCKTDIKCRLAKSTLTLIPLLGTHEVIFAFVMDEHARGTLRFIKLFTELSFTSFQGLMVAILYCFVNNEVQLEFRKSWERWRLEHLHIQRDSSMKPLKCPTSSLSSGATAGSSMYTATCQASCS

EC50 [11]: 0.019 nM
Ratio EC50 [18]: 2.8
SMILES: CC[C@H](C)[C@H](NC(=O)[C@H](CC(C)C)NC(=O)[C@H](Cc1c[nH]c2ccccc12)NC(=O)[C@H](CC(=O)O)NC(=O)[C@@H](NC(=O)[C@H](Cc1ccccc1)NC(=O)[C@H](CCC(=O)O)NC(=O)[C@H](CCCCNC(=O)COCCOCCNC(=O)COCCOCCNC(=O)CC[C@H](NC(=O)CCCCCCCCCCCCCCCCC(=O)O)C(=O)O)NC(=O)[C@H](C)NC(=O)[C@H](C)NC(=O)[C@H](CCC(=O)O)NC(=O)[C@H](CCC(=O)O)NC(=O)[C@H](CCC(=O)O)NC(=O)[C@H](CC(C)C)NC(=O)[C@H](Cc1ccc(O)cc1)NC(=O)[C@H](CO)NC(=O)[C@H](CO)NC(=O)[C@H](CCSC)NC(=O)[C@H](CC(=O)O)NC(=O)[C@H](CO)NC(=O)[C@@H](NC(=O)[C@H](Cc1ccccc1)NC(=O)[C@@H](NC(=O)CNC(=O)[C@H](CC(=O)O)NC(=O)C(C)(C)NC(=O)[C@@H](N)Cc1c[nH]cn1)[C@@H](C)O)[C@@H](C)O)C(C)C)C(=O)N[C@@H](CCCCN)C(=O)NCC(=O)N[C@@H](CCCNC(=N)N)C(=O)N1CCC[C@H]1C(=O)N[C@@H](C)C(N)=O (H-H[Aib]DGTFTSDMSSYLEEEAAK([AEEA-AEEA-γGlu-C18 diacid])EFVDWLIKGRPA-NH2)
Activity (Mus musculus [1]): Active
Activity (Mus musculus [2]): Active
Activity (Mus musculus [3]): Active
Activity (Mus musculus [4]): Active
Activity (Mus musculus [5]): Active
Activity (Mus musculus [6]): Active
Activity (Mus musculus [7]): Active
Activity (Mus musculus [8]): inactive
Activity (Mus musculus [9]): Active
Activity (Mus musculus [10]): Active
Activity (Mus musculus [12]): Active
Activity (Mus musculus [13]): 24.9%
Activity (Mus musculus [14]): Dose-Dependent Effect
Activity (Mus musculus [15]): Active
Activity (Mus musculus [16]): Active
Activity (Mus musculus [17]): Active
Activity (Mus musculus [19]): Active
Activity (Mus musculus [20]): Active
